In patent US20260274814A1, “THIENYL COMPOUNDS FOR THE TREATMENT OF A CENTRAL NERVOUS SYSTEM DISEASE OR DISORDER” (Coreterra Therapeutics, Inc., priority 2023, published 2026):
Counter-ions that a name gives are not always drawn. Like-named read-outs stand apart in the source and are kept apart here.

System: mice
Assay: Neuropharmacological Assay (SmartCube): automated behavioral signature of compound-treated mice compared with a database of reference drug classes
Format: in vivo
Conditions: for minimal effective dose: Mus musculus, ip, i.p., that dose is shown; for AD / AG / AN / AP / AX / CE / HL / MS / PS / SH / UK: 3.0 mg/kg i.p., 15 min before test
In short: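 Dose-response work typically spanned 0.3–10 mpk, widened or narrowed to obtain a full curve, with i.p. administration 15 min pre-test. MED is defined as the dose producing ≥45% total SmartCube activity; single-dose entries list the tested dose.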

[1] = dose having 45% or more total activity in SmartCube, if only one dose was tested, read-out: MED (minimal effective dose)
[2] = probability that activity matches this class of agents

Compound | minimal effective dose [1] [mg/kg] | AD [2] | AG [2] | AN [2] | AP [2] | AX [2] | CE [2] | HL [2] | MS [2] | PS [2] | SH [2] | UK [2] | also measured
CNC1COc2csc(Cl)c2C1 (stereo not drawn) [Compound 87, 5-chloro-N-methyl-3,4-dihydro-2H-thieno[3,4-b]pyran-3-amine hydrochloride] | 3 | ND (^ <4%) | ND (^ <4%) | ND (^ <4%) | +++ (≥49%) | ND (^ <4%) | ND (^ <4%) | ND (^ <4%) | ND (^ <4%) | ND (^ <4%) | ND (^ <4%) | ND (^ <4%) | 
CNC1COc2csc(C)c2C1 (stereo not drawn) [Compound 88, N, 5-dimethyl-3,4-dihydro-2H-thieno[3,4-b]pyran-3-amine hydrochloride] | 3 | ND (^ <4%) | ND (^ <4%) | ND (^ <4%) | ++++ (≥74%) | ND (^ <4%) | ND (^ <4%) | ND (^ <4%) | ND (^ <4%) | ND (^ <4%) | ND (^ <4%) | ND (^ <4%) | 
NC1CCc2csc(Cl)c2C1 (stereo not drawn) [Compound 89, 3-chloro-4,5,6,7-tetrahydro-2-benzothiophen-5-amine hydrochloride] | 3 | ND (^ <4%) | ND (^ <4%) | ND (^ <4%) | ND (^ <4%) | + (≥4%) | ND (^ <4%) | ND (^ <4%) | ++ (≥24%) | ND (^ <4%) | ND (^ <4%) | ND (^ <4%) | 
CNC1CCc2scc(Cl)c2C1 (stereo not drawn) [Compound 90, 3-chloro-N-methyl-4,5,6,7-tetrahydrobenzothiophen-5-amine hydrochloride] | 3 | ND (^ <4%) | ND (^ <4%) | ND (^ <4%) | +++ (≥49%) | ND (^ <4%) | ND (^ <4%) | ND (^ <4%) | ND (^ <4%) | ND (^ <4%) | ND (^ <4%) | ND (^ <4%) | 
CNC1CCc2c(sc(C(F)(F)F)c2C)C1 (stereo not drawn) [Compound 91, N, 3-dimethyl-2-(trifluoromethyl)-4,5,6,7-tetrahydrobenzothiophen-6-amine hydrochloride] | > 3 | ND (^ <4%) | ND (^ <4%) | ND (^ <4%) | ND (^ <4%) | ND (^ <4%) | ND (^ <4%) | ND (^ <4%) | ND (^ <4%) | ND (^ <4%) | ND (^ <4%) | ++ (≥24%) | 
CNC1CCc2c(sc(Cl)c2C)C1 (stereo not drawn) [Compound 92, 2-chloro-N, 3-dimethyl-4,5,6,7-tetrahydrobenzothiophen-6-amine hydrochloride] | 3 | ++++ (≥74%) | ND (^ <4%) | ND (^ <4%) | ND (^ <4%) | ND (^ <4%) | ND (^ <4%) | ND (^ <4%) | ND (^ <4%) | ND (^ <4%) | ND (^ <4%) | ND (^ <4%) | 
CNC1CCc2csc(C#N)c2C1 (stereo not drawn) [Compound 93, 6-(methylamino)-4,5,6,7-tetrahydro-2-benzothiophene-1-carbonitrile hydrochloride] | 0.1 | ND (^ <4%) | ND (^ <4%) | ND (^ <4%) | ++++ (≥74%) | ND (^ <4%) | ND (^ <4%) | ND (^ <4%) | ND (^ <4%) | ND (^ <4%) | ND (^ <4%) | ND (^ <4%) | 
CNC1CCc2c(Cl)csc2C1 (stereo not drawn) [Compound 94, 3-chloro-N-methyl-4,5,6,7-tetrahydrobenzothiophen-6-amine hydrochloride] | 3 | ND (^ <4%) | ND (^ <4%) | ND (^ <4%) | ++++ (≥74%) | ND (^ <4%) | ND (^ <4%) | ND (^ <4%) | ND (^ <4%) | ND (^ <4%) | ND (^ <4%) | ND (^ <4%) | 
CNC1CCc2csc(C3CC3)c2C1 (stereo not drawn) [Compound 95, 3-cyclopropyl-N-methyl-4,5,6,7-tetrahydro-2-benzothiophen-5-amine hydrochloride] | 1 | +++ (≥49%) | ND (^ <4%) | ND (^ <4%) | ++ (≥24%) | ND (^ <4%) | ND (^ <4%) | ND (^ <4%) | ND (^ <4%) | ND (^ <4%) | ND (^ <4%) | ND (^ <4%) | 
CNC1CCc2cc(Cl)sc2C1 (stereo not drawn) [Compound 96, 2-chloro-N-methyl-4,5,6,7-tetrahydrobenzothiophen-6-amine hydrochloride] | 3 | ND (^ <4%) | ND (^ <4%) | ND (^ <4%) | +++ (≥49%) | ND (^ <4%) | ND (^ <4%) | ND (^ <4%) | ND (^ <4%) | ND (^ <4%) | ND (^ <4%) | ND (^ <4%) | 
CNC1CCc2sc(Cl)cc2C1 (stereo not drawn) [Compound 97, 2-chloro-N-methyl-4,5,6,7-tetrahydrobenzothiophen-5-amine hydrochloride] | 1 | ++++ (≥74%) | ND (^ <4%) | ND (^ <4%) | ND (^ <4%) | ND (^ <4%) | ND (^ <4%) | ND (^ <4%) | ND (^ <4%) | ND (^ <4%) | ND (^ <4%) | ND (^ <4%) | 
CNC1CCc2c(F)sc(C)c2C1 (stereo not drawn) [Compound 100, 1-fluoro-N, 3-dimethyl-4,5,6,7-tetrahydro-2-benzothiophen-5-amine hydrochloride] | 1 | ND (^ <4%) | ND (^ <4%) | ND (^ <4%) | ++++ (≥74%) | ND (^ <4%) | ND (^ <4%) | ND (^ <4%) | ND (^ <4%) | ND (^ <4%) | ND (^ <4%) | ND (^ <4%) | 
CNC1CCc2scc(Br)c2C1 (stereo not drawn) [Compound 108, 3-bromo-N-methyl-4,5,6,7-tetrahydrobenzothiophen-5-amine hydrochloride] | < 3 | ND (^ <4%) | ND (^ <4%) | ND (^ <4%) | ++++ (≥74%) | ND (^ <4%) | ND (^ <4%) | ND (^ <4%) | ND (^ <4%) | ND (^ <4%) | ND (^ <4%) | ND (^ <4%) | 
CNC1(C)CCc2c(F)csc2C1 (stereo not drawn) [Compound 109, 3-fluoro-N, 6-dimethyl-5,7-dihydro-4H-benzothiophen-6-amine hydrochloride] | < 3 | ++++ (≥74%) | ND (^ <4%) | ND (^ <4%) | ND (^ <4%) | ND (^ <4%) | ND (^ <4%) | ND (^ <4%) | ND (^ <4%) | ND (^ <4%) | ND (^ <4%) | ND (^ <4%) | 
CNC1COc2cc(F)sc2C1 (stereo not drawn) [Compound 130, 2-fluoro-N-methyl-6,7-dihydro-5H-thieno[3,2-b]pyran-6-amine hydrochloride] | < 3 | ND (^ <4%) | ND (^ <4%) | ND (^ <4%) | ++++ (≥74%) | ND (^ <4%) | ND (^ <4%) | ND (^ <4%) | ND (^ <4%) | ND (^ <4%) | ND (^ <4%) | ND (^ <4%) | 
CNC1COc2csc(C#N)c2C1 (stereo not drawn) [Compound 139, 3-(methylamino)-3,4-dihydro-2H-thieno[3,4-b]pyran-5-carbonitrile hydrochloride] | 0.3 | ++ (≥24%) | ND (^ <4%) | ND (^ <4%) | ND (^ <4%) | ND (^ <4%) | ND (^ <4%) | ND (^ <4%) | ND (^ <4%) | ND (^ <4%) | ND (^ <4%) | ++ (≥24%) | 
CNC1CCc2scc(C(F)(F)F)c2C1 (stereo not drawn) [Compound 140, N-methyl-3-(trifluoromethyl)-4,5,6,7-tetrahydrobenzothiophen-5-amine hydrochloride] |  |  |  |  |  |  |  |  |  |  |  |  | minimal effective dose (minimal effective dose: dose having 45% or more total activity in SmartCube, if only one dose tested, read-out: MED): 3 mg/kg; AD (SmartCube class probability): ND (^ <4%); AG (SmartCube class probability): ND (^ <4%); AN (SmartCube class probability): ND (^ <4%); AP (SmartCube class probability): + (≥4%); AX (SmartCube class probability): ND (^ <4%); CE (SmartCube class probability): ND (^ <4%); HL (SmartCube class probability): ND (^ <4%); MS (SmartCube class probability): ND (^ <4%); PS (SmartCube class probability): ND (^ <4%); SH (SmartCube class probability): ND (^ <4%); UK (SmartCube class probability): +++ (≥49%)
